# In ChEMBL document CHEMBL1641506, “Design, synthesis and evaluation of novel tacrine-multialkoxybenzene hybrids as dual inhibitors for cholinesterases and amyloid beta aggregation” (Bioorg Med Chem, 2011):
# pIC50: −log10 of the molar value.
# Legend:
# [1] = target: Butyrylcholinesterase (Equus caballus, UniProt Q9N1N9)
# Description: Inhibition of equine BChE by Ellman's method
# [2] = Inhibition of amyloid beta (1-42) self-mediated aggregation at 20 uM by thioflavin T fluorescence method
# [3] = target: Acetylcholinesterase (Electrophorus electricus, UniProt O42275)
# Chain of Acetylcholinesterase (O42275 whole entry): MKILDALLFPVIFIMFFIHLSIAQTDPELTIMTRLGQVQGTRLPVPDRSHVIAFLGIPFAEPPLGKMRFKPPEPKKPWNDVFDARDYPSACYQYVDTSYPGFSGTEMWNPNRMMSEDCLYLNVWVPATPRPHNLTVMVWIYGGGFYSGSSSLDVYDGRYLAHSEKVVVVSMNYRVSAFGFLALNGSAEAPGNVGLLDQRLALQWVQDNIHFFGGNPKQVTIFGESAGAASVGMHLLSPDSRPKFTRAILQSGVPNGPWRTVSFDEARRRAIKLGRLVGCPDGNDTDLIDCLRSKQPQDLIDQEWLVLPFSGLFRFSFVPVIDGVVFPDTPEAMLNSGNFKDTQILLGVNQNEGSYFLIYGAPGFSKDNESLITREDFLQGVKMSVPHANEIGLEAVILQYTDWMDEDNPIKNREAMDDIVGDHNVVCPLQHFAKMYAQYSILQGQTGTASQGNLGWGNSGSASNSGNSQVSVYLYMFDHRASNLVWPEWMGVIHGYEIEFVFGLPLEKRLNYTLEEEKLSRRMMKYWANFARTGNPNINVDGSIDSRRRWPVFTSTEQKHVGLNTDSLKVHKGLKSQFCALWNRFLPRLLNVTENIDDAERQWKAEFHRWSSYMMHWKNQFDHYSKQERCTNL
# Description: Inhibition of electric eel AChE by Ellman's method
# Chain of Butyrylcholinesterase (Q9N1N9 whole entry): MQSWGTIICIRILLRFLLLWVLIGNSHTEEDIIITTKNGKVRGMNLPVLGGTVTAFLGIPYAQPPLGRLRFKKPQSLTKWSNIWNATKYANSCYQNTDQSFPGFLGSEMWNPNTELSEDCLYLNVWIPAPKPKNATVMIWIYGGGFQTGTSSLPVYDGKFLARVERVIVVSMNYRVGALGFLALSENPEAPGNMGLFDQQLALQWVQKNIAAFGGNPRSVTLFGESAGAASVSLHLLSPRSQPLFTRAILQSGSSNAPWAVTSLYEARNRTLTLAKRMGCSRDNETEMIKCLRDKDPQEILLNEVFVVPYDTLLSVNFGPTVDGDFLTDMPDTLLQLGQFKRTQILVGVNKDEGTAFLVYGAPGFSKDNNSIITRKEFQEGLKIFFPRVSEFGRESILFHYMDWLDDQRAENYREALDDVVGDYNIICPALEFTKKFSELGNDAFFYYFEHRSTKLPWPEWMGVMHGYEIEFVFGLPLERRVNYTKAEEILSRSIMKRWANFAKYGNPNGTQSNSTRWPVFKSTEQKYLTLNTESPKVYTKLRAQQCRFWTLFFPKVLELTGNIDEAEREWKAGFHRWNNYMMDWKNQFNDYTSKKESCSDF
SMILES,pIC50 [1],inhibition [2] [%],pIC50 [3]
COc1cc(CNCCCCCNc2c3c(nc4ccccc24)CCCC3)cc2c1OCO2,7.53,63.1,7.10
COc1ccc(CNCCCCCCCCNc2c3c(nc4ccccc24)CCCC3)cc1OC,8.25,,7.95
COc1ccc(CNCCCCCCCNc2c3c(nc4ccccc24)CCCC3)cc1OC,8.26,,7.62
COc1ccc(CNCCCCCCCCCNc2c3c(nc4ccccc24)CCCC3)cc1OC,8.25,,7.60
COc1cc(CNCCCCCCCNc2c3c(nc4ccccc24)CCCC3)cc(OC)c1OC,8.45,,7.76
COc1cc(CNCCCCCCCCCNc2c3c(nc4ccccc24)CCCC3)cc2c1OCO2,7.94,68.5,7.73
COc1ccc(CNCCCCCCNc2c3c(nc4ccccc24)CCCC3)cc1OC,8.57,,7.51
COc1cc(CNCCCCCCNc2c3c(nc4ccccc24)CCCC3)cc(OC)c1OC,8.59,,7.65
COc1cc(CNCCCCCCCCCNc2c3c(nc4ccccc24)CCCC3)cc(OC)c1OC,8.33,,7.69
COc1cc(CNCCCCCCCCNc2c3c(nc4ccccc24)CCCC3)cc(OC)c1OC,8.47,,8.01
COc1cc(CNCCCCNc2c3c(nc4ccccc24)CCCC3)cc2c1OCO2,7.33,63.8,6.95
COc1cc(CNCCCCCCNc2c3c(nc4ccccc24)CCCC3)cc2c1OCO2,8.28,67.1,7.69
COc1cc(CNCCCCCCCCNc2c3c(nc4ccccc24)CCCC3)cc2c1OCO2,8.10,65.2,8.10
COc1cc(CNCCCCCCCNc2c3c(nc4ccccc24)CCCC3)cc2c1OCO2,8.01,65,7.73
